# According to US8815565B2, “Method for culturing mycoplasma contamination-free cells and method for removing mycoplasma contamination of cells” (Cellsafe Co., Ltd., priority 2010, dated 2014):
# Tested on: Mycoplasma hyorhinis (ATCC 17981) inoculated on HepG2 cell line
# Test: Preventive activity against mycoplasma contamination during cell culturing
# Type: cell-based
# Conditions: 20 μg/ml AM3 and 20 μM surfactin, 1×10^3 cfu Mycoplasma hyorhinis
# Experimental: A cell line HepG2, which was not contaminated with mycoplasma, was inoculated at a concentration of 1×10^5 cells on DMEM (GIBCO BRL, Cat. No. 12800-058) including 10% or less serum (GIBCO BRL, Cat. No. 10082-147). The cell line was treated with 20 μg/ml of amphidinol 3 (AM3) and 20 μM of surfactin, followed by inoculation of 1×10^3 cfu (colony formin unit) of Mycoplasma hyorhinis (ATCC 17981). The cell line was cultured in an incubator at a temperature of 37° C. and in a condition of 5% CO2 for 3 days. Sub-culturing was performed twice per week. The cells were harvested every week and then PCR was performed thereon with a mycoplasma diagnosis kit (Promokine, Germany; Cellsafe Co., Ltd., Korea) according to the enclosed protocol. The resulting PCR products were electrophoresed on a 1% agarose gel to measure the mycoplasma contamination.
compound,measurement,value
"C=C/C=C/CC/C=C/C=C/C=C/CC/C=C/C(O)C(O)C1OC(C(O)C(O)C(=C)CCC(O)C2CC(O)C(O)C(C(O)C(O)/C=C(\C)CCC(O)CC(O)C(O)C(C)CC(O)C(O)CCCCCC(O)CCCC(O)/C=C/CC(O)/C=C/CC(O)CO)O2)CC(O)C1O (stereo not shown) [AM3, amphidinol 3]",mycoplasma contamination after artificial inoculation,stably cultured without mycoplasma contamination
